Source: US9445594B2, “Molecules having certain pesticidal utilities, intermediates, compositions, and processes, related thereto” (priority 2014, dated 2016)

Legend:
Assay type in all cases: in vivo
[1] = system: Beet Armyworm (Spodoptera exigua, LAPHEG) ("BAW"); assay: Bioassays on BAW, 128-well diet tray assay; conditions: 168 h, second instar larvae, 50 μg/cm^2 on artificial diet, 25° C., five to seven days, average of eight wells, read-out: BAW % Control (or Mortality) rating
Procedure: (§1) Certain molecules disclosed in this document were tested against BAW, CEW, and CL using procedures described in the following examples. In the reporting of the results, the “BAW, CEW, & CL Rating Table” was used (See Table Section).
Bioassays on BAW were conducted using a 128-well diet tray assay. one to five second instar BAW larvae were placed in each well (3 mL) of the diet tray that had been previously filled with 1 mL of artificial diet to which 50 μg/cm^2 of the test compound (dissolved in 50 μL of 90:10 acetone-water mixture) had been applied (to each of eight wells) and then allowed to dry. Trays were covered with a clear self-adhesive cover and held at 25° C., 14:10 light-dark for five to seven days. Percent mortality was recorded for the larvae in each well; activity in the eight wells was then averaged. The results are indicated in the table entitled “Table ABC: Biological Results” (See Table Section).

[2] = system: Cabbage Looper (Trichoplusia ni, TRIPNI) ("CL"); assay: Bioassays on CL, 128-well diet tray assay; conditions: 168 h, second instar larvae, 50 μg/cm^2 on artificial diet, 25° C., five to seven days, average of eight wells, read-out: CL % Control (or Mortality) rating
Procedure: as §1
Bioassays on CL were conducted using a 128-well diet tray assay. one to five second instar CL larvae were placed in each well (3 mL) of the diet tray that had been previously filled with 1 mL of artificial diet to which 50 μg/cm^2 of the test compound (dissolved in 50 μL of 90:10 acetone-water mixture) had been applied (to each of eight wells) and then allowed to dry. Trays were covered with a clear self-adhesive cover and held at 25° C., 14:10 light-dark for five to seven days. Percent mortality was recorded for the larvae in each well; activity in the eight wells was then averaged. The results are indicated in the table entitled “Table ABC: Biological Results” (See Table Section).

[3] = system: Yellow Fever Mosquito (Aedes aegypti, AEDSAE) ("YFM"); assay: Bioassays on YFM, 96-well plate larval assay; conditions: about 1 day-old larvae, from 4000 ppm DMSO master plate diluted, room temperature, scored after 3 days
Procedure: Certain molecules disclosed in this document were tested against YFM using procedures described in the following paragraph. In the reporting of the results, the “YFM Rating Table” was used (See Table Section).
Master plates containing 400 μg of a molecule dissolved in 100 μL of dimethyl sulfoxide (DMSO) (equivalent to a 4000 ppm solution) are used. A master plate of assembled molecules contains 15 μL per well. To this plate, 135 μL of a 90:10 water:acetone mixture is added to each well. A robot (Biomek® NXP Laboratory Automation Workstation) is programmed to dispense 15 μL aspirations from the master plate into an empty 96-well shallow plate (“daughter” plate). There are 6 reps (“daughter” plates) created per master. The created daughter plates are then immediately infested with YFM larvae.
The day before plates are to be treated, mosquito eggs are placed in Millipore water containing liver powder to begin hatching (4 g. into 400 mL). After the daughter plates are created using the robot, they are infested with 220 μL of the liver powder/larval mosquito mixture (about 1 day-old larvae). After plates are infested with mosquito larvae, a non-evaporative lid is used to cover the plate to reduce drying. Plates are held at room temperature for 3 days prior to grading. After 3 days, each well is observed and scored based on mortality.

SMILES: CCc1ccccc1NC(=O)NCCCc1ccc(-c2ncn(-c3ccc(OC(F)(F)F)cc3)n2)cc1 [F86, 1-(2-Ethylphenyl)-3-(3-(4-(1-(4-(trifluoromethoxy)phenyl)-1H-1,2,4-triazol-3-yl)phenyl)propyl)urea]
- mortality at 50 µg/cm2 [1]: 50 to 100%
- mortality at 50 µg/cm2 [2]: 50 to 100%
- YFM % Control (or Mortality) rating [3]: A (80-100)

SMILES: CC(C)c1ccccc1NC(=S)NCCCCc1ccc(-c2ncn(-c3ccc(OC(F)(F)F)cc3)n2)cc1 [F88, 1-(2-Isopropylphenyl)-3-(4-(4-(1-(4-(trifluoromethoxy)phenyl)-1H-1,2,4-triazol-3-yl)phenyl)butyl)thiourea]
- mortality at 50 µg/cm2 [1]: 50 to 100%
- mortality at 50 µg/cm2 [2]: 50 to 100%
- YFM % Control (or Mortality) rating [3]: A (80-100)

SMILES: CC(C)c1ccccc1NC(=O)NCCCCc1ccc(-c2ncn(-c3ccc(OC(F)(F)F)cc3)n2)cc1 [F90, 1-(2-Isopropylphenyl)-3-(4-(4-(1-(4-(trifluoromethoxy)phenyl)-1H-1,2,4-triazol-3-yl)phenyl)butyl)urea]
- mortality at 50 µg/cm2 [1]: 0%
- mortality at 50 µg/cm2 [2]: 0%
- YFM % Control (or Mortality) rating [3]: D (No activity noticed in this bioassay)

SMILES: O=C(NCCCCc1ccc(-c2ncn(-c3ccc(OC(F)(F)F)cc3)n2)cc1)Nc1cccc(Cl)c1 [F93, 1-(3-Chlorophenyl)-3-(4-(4-(1-(4-(trifluoromethoxy)phenyl)-1H-1,2,4-triazol-3-yl)phenyl)butyl)urea]
- mortality at 50 µg/cm2 [1]: 0%
- mortality at 50 µg/cm2 [2]: 50 to 100%
- YFM % Control (or Mortality) rating [3]: D (No activity noticed in this bioassay)

SMILES: O=C(NCCCCc1ccc(-c2ncn(-c3ccc(OC(F)(F)F)cc3)n2)cc1)Nc1ccc(Cl)cc1 [F94, 1-(4-Chlorophenyl)-3-(4-(4-(1-(4-(trifluoromethoxy)phenyl)-1H-1,2,4-triazol-3-yl)phenyl)butyl)urea]
- mortality at 50 µg/cm2 [1]: 0%
- mortality at 50 µg/cm2 [2]: 50 to 100%
- YFM % Control (or Mortality) rating [3]: D (No activity noticed in this bioassay)

SMILES: COc1ccccc1NC(=O)NCCCCc1ccc(-c2ncn(-c3ccc(OC(F)(F)F)cc3)n2)cc1 [F95, 1-(2-Methoxyphenyl)-3-(4-(4-(1-(4-(trifluoromethoxy)phenyl)-1H-1,2,4-triazol-3-yl)phenyl)butyl)urea]
- mortality at 50 µg/cm2 [1]: 0%
- mortality at 50 µg/cm2 [2]: 50 to 100%
- YFM % Control (or Mortality) rating [3]: D (No activity noticed in this bioassay)

SMILES: COc1ccc(NC(=O)NCCCCc2ccc(-c3ncn(-c4ccc(OC(F)(F)F)cc4)n3)cc2)cc1 [F97, 1-(4-Methoxyphenyl)-3-(4-(4-(1-(4-(trifluoromethoxy)phenyl)-1H-1,2,4-triazol-3-yl)phenyl)butyl)urea]
- mortality at 50 µg/cm2 [1]: 0 to 50%
- mortality at 50 µg/cm2 [2]: 0%
- YFM % Control (or Mortality) rating [3]: D (No activity noticed in this bioassay)

SMILES: CCc1ccccc1NC(=O)NCCCCc1ccc(-c2ncn(-c3ccc(OC(F)(F)F)cc3)n2)cc1 [F98, 1-(2-Ethylphenyl)-3-(4-(4-(1-(4-(trifluoromethoxy)phenyl)-1H-1,2,4-triazol-3-yl)phenyl)butyl)urea]
- mortality at 50 µg/cm2 [1]: 0 to 50%
- mortality at 50 µg/cm2 [2]: 0%
- YFM % Control (or Mortality) rating [3]: D (No activity noticed in this bioassay)

SMILES: Cc1ccc(NC(=O)NCCCCc2ccc(-c3ncn(-c4ccc(OC(F)(F)F)cc4)n3)cc2)cc1 [F99, 1-(p-Tolyl)-3-(4-(4-(1-(4-(trifluoromethoxy)phenyl)-1H-1,2,4-triazol-3-yl)phenyl)butyl)urea]
- mortality at 50 µg/cm2 [1]: 0 to 50%
- mortality at 50 µg/cm2 [2]: 0%
- YFM % Control (or Mortality) rating [3]: D (No activity noticed in this bioassay)

SMILES: Cc1ccccc1NC(=O)NCc1ccc(-c2ncn(-c3ccc(OC(F)(F)F)cc3)n2)cc1 [F100, 1-(o-Tolyl)-3-(4-(1-(4-(trifluoromethoxy)phenyl)-1H-1,2,4-triazol-3-yl)benzyl)urea]
- mortality at 50 µg/cm2 [1]: 0%
- mortality at 50 µg/cm2 [2]: 0%
- YFM % Control (or Mortality) rating [3]: D (No activity noticed in this bioassay)

SMILES: Cc1ccc(NC(=O)NCc2ccc(-c3ncn(-c4ccc(OC(F)(F)F)cc4)n3)cc2)cc1 [F102, 1-(p-Tolyl)-3-(4-(1-(4-(trifluoromethoxy)phenyl)-1H-1,2,4-triazol-3-yl)benzyl)urea]
- mortality at 50 µg/cm2 [1]: 0%
- mortality at 50 µg/cm2 [2]: 0%
- YFM % Control (or Mortality) rating [3]: D (No activity noticed in this bioassay)

SMILES: O=C(NCc1ccc(-c2ncn(-c3ccc(OC(F)(F)F)cc3)n2)cc1)Nc1cccc(Cl)c1 [F103, 1-(3-Chlorophenyl)-3-(4-(1-(4-(trifluoromethoxy)phenyl)-1H-1,2,4-triazol-3-yl)benzyl)urea]
- mortality at 50 µg/cm2 [1]: 0 to 50%
- mortality at 50 µg/cm2 [2]: 50 to 100%
- YFM % Control (or Mortality) rating [3]: A (80-100)

SMILES: O=C(NCc1ccc(-c2ncn(-c3ccc(OC(F)(F)F)cc3)n2)cc1)Nc1ccccc1Cl [F104, 1-(2-Chlorophenyl)-3-(4-(1-(4-(trifluoromethoxy)phenyl)-1H-1,2,4-triazol-3-yl)benzyl)urea]
- mortality at 50 µg/cm2 [1]: 50 to 100%
- mortality at 50 µg/cm2 [2]: 0 to 50%
- YFM % Control (or Mortality) rating [3]: B (More than 0 - Less than 80)

SMILES: O=C(NCc1ccc(-c2ncn(-c3ccc(OC(F)(F)F)cc3)n2)cc1)Nc1ccc(Cl)cc1 [F105, 1-(4-Chlorophenyl)-3-(4-(1-(4-(trifluoromethoxy)phenyl)-1H-1,2,4-triazol-3-yl)benzyl)urea]
- mortality at 50 µg/cm2 [1]: 50 to 100%
- mortality at 50 µg/cm2 [2]: 50 to 100%
- YFM % Control (or Mortality) rating [3]: B (More than 0 - Less than 80)

SMILES: COc1ccccc1NC(=O)NCc1ccc(-c2ncn(-c3ccc(OC(F)(F)F)cc3)n2)cc1 [F106, 1-(2-Methoxyphenyl)-3-(4-(1-(4-(trifluoromethoxy)phenyl)-1H-1,2,4-triazol-3-yl)benzyl)urea]
- mortality at 50 µg/cm2 [1]: 0%
- mortality at 50 µg/cm2 [2]: 0%
- YFM % Control (or Mortality) rating [3]: D (No activity noticed in this bioassay)

SMILES: COc1cccc(NC(=O)NCc2ccc(-c3ncn(-c4ccc(OC(F)(F)F)cc4)n3)cc2)c1 [F107, 1-(3-Methoxyphenyl)-3-(4-(1-(4-(trifluoromethoxy)phenyl)-1H-1,2,4-triazol-3-yl)benzyl)urea]
- mortality at 50 µg/cm2 [1]: 0%
- mortality at 50 µg/cm2 [2]: 0%
- YFM % Control (or Mortality) rating [3]: B (More than 0 - Less than 80)

SMILES: Cc1cccc(NC(=O)NCc2ccc(-c3ncn(-c4ccc(OC(F)(F)F)cc4)n3)cc2)c1 [F108, 1-(m-Tolyl)-3-(4-(1-(4-(trifluoromethoxy)phenyl)-1H-1,2,4-triazol-3-yl)benzyl)urea]
- mortality at 50 µg/cm2 [1]: 0%
- mortality at 50 µg/cm2 [2]: 0%
- YFM % Control (or Mortality) rating [3]: D (No activity noticed in this bioassay)

SMILES: COc1ccc(NC(=O)NCc2ccc(-c3ncn(-c4ccc(OC(F)(F)F)cc4)n3)cc2)cc1 [F109, 1-(4-Methoxyphenyl)-3-(4-(1-(4-(trifluoromethoxy)phenyl)-1H-1,2,4-triazol-3-yl)benzyl)urea]
- mortality at 50 µg/cm2 [1]: 0%
- mortality at 50 µg/cm2 [2]: 0%
- YFM % Control (or Mortality) rating [3]: D (No activity noticed in this bioassay)
